Laboratory results reported in patent publication US7332615B2, “Hydrophilic analogs of 4,8-dihydrobenzodithiophene-4,8-diones as anticancer agents” (Industrial Technology Research Institute, priority 2004, dated 2008).
Where two headings read alike, the source gives them in different places.

Columns and labels:
[1] = test system: epidermoid carcinoma of the nasopharynx (KB); test: Cytotoxicity Assays Method C, KB; assay type: cell-based; conditions: 72 h, read-out: IC50 KB
prostate cancer (PC-3) = test: Cytotoxicity Assays Method C, PC-3; assay type: cell-based; conditions: 72 h, read-out: IC50 PC-3
[2] = test system: Human promyeloid leukemia HL-60 cells; test: Cytotoxicity Assays Method B (MTT proliferation assay), HL-60; assay type: cell-based; conditions: Homo sapiens, read-out: IC50 (concentration at which 50% of the cells are inhibited from growing)
Protocol: Cytotoxicity Assays Method B (HL-60) [H. M. Chen et al. Chin. Pharm. J. 53, 157-167 (2001)]
Human promyeloid leukemia HL-60 cells were obtained from the American Type
Culture Collection (Manassas, Va., USA) and the Culture Collection and Research Center(CCRC) (Tai wan, ROC). Human promyeloid leukemia HL-60 cells were cultured in suspension in RPMI-1640 medium (GIBCO, Grand Is land, USA), containing 10% fetal bovine se rum (GIBCO, Grand Is land, USA), 100 unit/mL penicillin, […] streptomycin and 1% L-glutamine at 37° C. in a humidified atmosphere of 5% CO2 in air. Cells were split every day to maintain the cell numbers between 2−5×10^5/mL. Cell numbers were assessed by the standard procedure of leukocyte counting using a hemocytometer and cell viability was checked by the ability of cells to exclude Trypan blue.
Cellular proliferation was determined by the MTT [3-(4,5-dimethylthiazol-2-yl)-2,5-diphenyltetrazolium bromide] as say. Briefly, […] of MTT (5 mg/mL) was added to each well of 96-well plates containing 1×10^5 cells after treatment with different concentrations of samples for 4 days. The reaction was stopped after 2 h by adding […] of 0.04 N HCl in isopropanol and the OD570 nm was determined by a minicolorimetric reader. Each concentration treatment was performed in triplicate.

[3] = test system: p-gp-expressing epidermoid carcinoma of the nasopharynx (KB-VIN); test: Cytotoxicity Assays Method C, KB-VIN; assay type: cell-based; conditions: Homo sapiens, KBVIN, 72 h, 50% reduction in cell number after 72 hr of incubation
Source text: Cytotoxicity Assays Method C (KB, KB-VIN, AS49, HCT-8, PC-3) [K. H. Lee et. al. Planta Med. 54, 308-312 (1998), Monk A et. al. J. Natl. Cancer Inst. 83, 757-766 (1991).] The cell lines included epidermoid caninoma of the nasopharynx (KB), p-gp-expressing epidermoid caninoma of the nasopharynx (KB-VIN), lung carcinoma (A-549), ileocecal carinoma (HCT-8) and prostate cancer (PC-3) cell lines.

[4] = test system: ileocecal carcinoma (HCT-8); test: Cytotoxicity Assays Method C, HCT-8; assay type: cell-based; conditions: Homo sapiens, HCT-8, 72 h, read-out: IC50 HCT-8
lung carcinoma (A-549) = test: Cytotoxicity Assays Method C, A-549; assay type: cell-based; conditions: Homo sapiens, A549, 72 h, read-out: IC50 A549
MCF-7 = test: Cytotoxicity Assays Method A (alamarBlue anti-proliferative assay), MCF-7; assay type: cell-based
Source text: (§1) Cytotoxicity Assays Method A (HUVEC, MCF-7, HT-29, Hep 3B and NCl-H460) [S. A. Ahmed, R. M. Gogal Jr., and J. E. Walsh, Journal of Immunological Methods 170: 211-224, (1994): M. R. Boyd, Status of the NCl preclinical antitumor drug discovery screen. (Published by J. B. Lippincoft Company, Philadelphia, Pa. 19105, USA) Principles & Practices of Oncology Updates 3 # 10: 1-12, (1989); M. R. Boyd, et al. Data display and analysis strategies for the NCl disease-oriented in vitro antitumor drug screen. In: Cytotoxic anti-cancer drugs: models and concepts for drug discovery and development. Boston: Kluwer Academic, Pages; 11-34, (1992)]
(§2) The test compounds were dissolved in 100% DMSO and then diluted with sterile distilled water to obtain initial working solutions of 20000, 2000, 200, 20 and 2 μM in 80% DMSO. A 200 fold dilution was further made in culture media to generate final assay concentrations of 100, 10, 1, 0.1 and 0.01 μM in 0.4% DMSO.
(§3) Aliquots of 100 μl of cell suspension (about 1.5-3.0×10^3/well) were placed in 96-well microtiter plates in an atmosphere of 5% CO2 at 37° C. After 24 hours, 100 μl of growth medium and 1 μl of test solution or vehicle (80% DMSO) were added respectively per well in duplicate for an additional 72-hour incubation. Thus, the final concentration of DMSO was 0.4%. The test compounds, IIa-1, IIb-1 and VII-1 were evaluated at concentrations of 100, 10, 1, 0.1 and 0.01 μM. At the end of incubation, 20 μl of alamarBlue 90% reagent was added to each well for another 6-hour incubation before detection of cell viability by fluorescent intensity. Fluorescent intensity was measured using a Spectraflour Plus plate reader with excitation at 530 nm and emission at 590 nm.
(§4) The measured results was calculated by the following formula: PG(%)=100×(Mean Ftest−Mean Ftime0)/(Mean Fctrl−Mean Ftime0)] If(Mean Ftest−Mean Ftime0)<0, then PG(%)=100×(Mean Ftest−Mean Ftime0)/(Mean Ftime0−Mean Fblank) wherein PG represents percent growth;
(§5) A decrease of 50% or more (≧50%) in fluorescent intensity relative to the vehicle-treated control indicates significant cytostatic or cytotoxic activity, and semi-quantitative values for IC50, TGI and LC50 were then determined by nonlinear regression using GraphPad Prism (GraphPad Software, USA).
(§6) IC50 (50% Inhibition Concentration); Test compound concentration where the increase from times in the number or mass of treated cells was only 50% as much as the corresponding increase in the vehicle-control at the end of experiment.
(§7) TGI (Total Growth Inhibition): Test compound concentration where the number or mass of treated cells at the end of experiment was equal to that at time0.
(§8) LC50 (50% Lethal Concentration): Test compound concentration where the number or mass of treated cells at the end of experiment was half that at time.
(§9) The assays were used to detect changes in cell proliferation based on the ability of viable cells to cause alamarBlue to change from its oxidized to a reduced form. With the results obtained from the alamarBlue reaction, cell proliferation can be quantified and metabolic activity of viable cell can be examined.
(§10) The succinate derivatives of compounds IIa-1, IIb-1 and VII-1 were tested for possible effect on the proliferation of four human tumor cell lines ˜MCF-7 (breast), HT-29 (colon), Hep3B (liver), and NCl—H 460 (lung) as well as one human umbilical vein endothelial cell (HUVEC) at assay concentration from 0.01 to 100 μM, through serial 10-fold dilution.

HUVEC = test: Cytotoxicity Assays Method A (alamarBlue anti-proliferative assay), HUVEC; assay type: cell-based
Source text: as §1, §2, §3, §4, §5, §6, §7, §8, §9, §10

[5] = as above; assay type: cell-based; conditions: human, HUVEC (human umbilical vein endothelial cells), 72-hour incubation, alamarBlue
Source text: as §1, §2, §3, §4, §5, §6, §7, §8, §9, §10

Hep 3B = test: Cytotoxicity Assays Method A (alamarBlue anti-proliferative assay), Hep 3B; assay type: cell-based
Source text: as §1, §2, §3, §4, §5, §6, §7, §8, §9, §10

HT-29 = test: Cytotoxicity Assays Method A (alamarBlue anti-proliferative assay), HT-29; assay type: cell-based
Source text: as §1, §2, §3, §4, §5, §6, §7, §8, §9, §10

NCI-H460 = test: Cytotoxicity Assays Method A (alamarBlue anti-proliferative assay), NCI-H460; assay type: cell-based
Source text: as §1, §2, §3, §4, §5, §6, §7, §8, §9, §10

SMILES: O=C(O)CCCC(=O)OCc1cc2c(s1)C(=O)c1sccc1C2=O [IIa-2, Mono-[1-(4,8-dioxo-4,8-dihydrobenzo[1,2-b:5,4-b′]dithiophen-2-yl)-methyl]pentanedioate]
- IC50 [1]: 2.22 µM
- IC50 (prostate cancer (PC-3)): 0.75 µM
- melting point: 220 °C (dec.)
- IC50 ([2]; 96 h, HL-60, MTT, treatment for 4 days): 0.7 µM
- IC50 [3]: 1.39 µM
- IC50 [4]: 1.66 µM
- IC50 (lung carcinoma (A-549)): 2.08 µM

SMILES: O=C(O)CCC(=O)OCc1cc2c(s1)C(=O)c1sccc1C2=O [IIa-1, Mono-[1-(4,8-dioxo-4,8-dihydrobenzo[1,2-b:5,4-b′]dithiophen-2-yl)-methyl]succinate]
- IC50 [1]: 2.02 µM
- IC50 (MCF-7; Homo sapiens, MCF7, 72 h, read-out: IC50 (50% Inhibition Concentration)): 3.4 µM
- CC50 (MCF-7; Homo sapiens, MCF7, MCF-7, 72-hour incubation, alamarBlue, read-out: LC50 (50% Lethal Concentration)): 14 µM
- TGI (Total growth Inhibition) (MCF-7; MCF-7, 72-hour incubation, alamarBlue): 6.9 µM
- cytotoxicity against MCF-7 (in words) (MCF-7; MCF-7, summary of Table 1): significant activity
- IC50 (prostate cancer (PC-3)): 1.35 µM
- IC50 ([2]; HL-60, 96 h): 0.47 µM
- IC50 [3]: 4.47 µM
- TGI (Total growth Inhibition) (HUVEC; 72-hour incubation, alamarBlue): 19 µM
- IC50 (HUVEC; Homo sapiens, 72 h, read-out: IC50 (50% Inhibition Concentration)): 10 µM
- LC50 (50% lethal concentration) at 72 h [5]: 34 µM
- cytotoxicity against Hep3B (in words) (Hep 3B; Hep3B, summary of Table 1): significant activity
- TGI (Total growth Inhibition) (Hep 3B; Hep-3B, 72-hour incubation, alamarBlue): 5.1 µM
- IC50 (Hep 3B; Homo sapiens, Hep3B, 72 h, read-out: IC50 (50% Inhibition Concentration)): 2.8 µM
- CC50 (Hep 3B; Homo sapiens, Hep3B, Hep-3B, 72-hour incubation, alamarBlue, read-out: LC50 (50% Lethal Concentration)): 9.2 µM
- IC50 [4]: 4.03 µM
- IC50 (lung carcinoma (A-549)): 4.03 µM
- TGI (Total growth Inhibition) (HT-29; HT-29, 72-hour incubation, alamarBlue): 22 µM
- IC50 (HT-29; Homo sapiens, HT-29, 72 h, read-out: IC50 (50% Inhibition Concentration)): 11 µM
- LC50 (50% lethal concentration) (HT-29; Homo sapiens, HT-29, 72-hour incubation, alamarBlue): 45 µM
- IC50 (NCI-H460; Homo sapiens, NCI-H460, 72 h, read-out: IC50 (50% Inhibition Concentration)): 0.81 µM
- CC50 (NCI-H460; Homo sapiens, NCI-H460, 72-hour incubation, alamarBlue, read-out: LC50 (50% Lethal Concentration)): 3.5 µM
- TGI (Total growth Inhibition) (NCI-H460; NCI-H460, 72-hour incubation, alamarBlue): 1.7 µM
